Laboratory results reported in PMC11855827, “High-Throughput Screening of Five Compound Libraries for Anthelmintic Activity and Toxicity Leads to the Discovery of Two Flavonoid Compounds” (International Journal of Molecular Sciences, 2025).

Tested on: C. elegans
Settings: Table S2, C. elegans SS assay, 110 μM, averages of 4 data points

Row | SMILES | Percentage of motility inhibition 0 h [%] | Percentage of motility inhibition 24 h [%]
1 | CC[C@H]1CN2CCc3cc(OC)c(OC)cc3[C@@H]2C[C@@H]1C[C@H]1NCCc2cc(O)c(OC)cc21.Cl.Cl [Cephaeline (dihydrochloride)] | 18 | 4
2 | CC1=C(C(=O)O)N2C(=O)[C@@H](NC(=O)[C@H](N)c3ccccc3)[C@H]2SC1.O [Cephalexin (monohydrate)] | 8 | 0
3 | CC(=O)OCC1=C(C(=O)[O-])N2C(=O)[C@@H](NC(=O)Cc3cccs3)[C@H]2SC1.[Na+] [Cephalothin (sodium)] | 9 | 11
4 | COc1ccc2c(c[n+](C)c3c4cc5c(cc4ccc23)OCO5)c1OC.[Cl-] [Chelerythrine (chloride)] | 17 | 22
5 | CC(=O)O.CC(=O)O.NC(=N\CCCCCC/N=C(N)/N=C(\N)Nc1ccc(Cl)cc1)/N=C(\N)Nc1ccc(Cl)cc1 [Chlorhexidine (diacetate)] | 38 | 62
6 | N=C(NCCCCCCNC(=N)NC(=N)Nc1ccc(Cl)cc1)NC(=N)Nc1ccc(Cl)cc1.O=C(O)[C@H](O)[C@@H](O)[C@H](O)[C@H](O)CO.O=C(O)[C@H](O)[C@@H](O)[C@H](O)[C@H](O)CO [Chlorhexidine (digluconate)] | 39 | 46
7 | CN(C)[C@@H]1C(=O)C(C(N)=O)=C(O)[C@@]2(O)C(=O)C3=C(O)c4c(O)ccc(Cl)c4[C@@](C)(O)[C@H]3C[C@@H]12.Cl [Chlortetracycline (hydrochloride)] | 24 | 5
8 | C[C@H](CCC(=O)[O-])[C@H]1CC[C@H]2[C@@H]3[C@H](O)C[C@@H]4C[C@H](O)CC[C@]4(C)[C@H]3C[C@H](O)[C@]12C.[Na+] [Cholic acid (sodium)] | 0 | 5
9 | C[N+](C)(C)CCO.O=C([O-])C(O)C(O)C(=O)O (stereo not shown) [Choline (bitartrate)] | 0 | 0
10 | C[N+](C)(C)CCO.[Cl-] [Choline (chloride)] | 51 | 17
11 | O=C(O)[C@H]1O[C@@H](Oc2cc(O)c3c(=O)cc(-c4ccccc4)oc3c2)[C@H](O)[C@@H](O)[C@@H]1O [Chrysin‐7‐O‐glucuronide] | 0 | 37
12 | COc1cc(-c2oc3cc(OC)c(OC)c(O)c3c(=O)c2OC)ccc1O [Chrysosplenetin] | 17 | 6
13 | C[C@H](CC(=O)[C@@H]1OC1(C)C)[C@H]1C(=O)C[C@@]2(C)C3=CC[C@H]4C(C)(C)[C@@H](O[C@@H]5OC[C@@H](O)[C@H](O)[C@H]5O)CC[C@@]45C[C@@]35[C@@H](O)C[C@]12C [Cimicifugoside H-1] | 0 | 3
14 | C[C@@H]1C[C@H]2O[C@@]3(O[C@@H]2C(C)(C)O)[C@H](O)[C@@]2(C)[C@@H]4CC[C@H]5C(C)(C)[C@@H](O[C@@H]6OC[C@@H](O)[C@H](O)[C@H]6O)CC[C@@]56C[C@@]46CC[C@]2(C)[C@@H]13 [Cimigenoside] | 30 | 17
15 | CC(=O)O[C@@H]1C[C@@]23C[C@@]24CC[C@H](O[C@@H]2OC[C@H](O)[C@H](O)[C@H]2O)C(C)(C)[C@@H]4CC[C@H]3[C@]2(C)[C@@H](O)[C@]34O[C@H](C[C@@H](C)[C@@H]3[C@@]12C)[C@@H](C(C)(C)O)O4 [Cimiracemoside D] | 0 | 0
16 | Oc1cc(O)c2c(c1)O[C@@]1(c3ccc(O)c(O)c3)Oc3cc(O)c4c(c3[C@@H]2[C@H]1O)O[C@H](c1ccc(O)c(O)c1)[C@H](O)[C@H]4c1c(O)cc(O)c2c1O[C@H](c1ccc(O)c(O)c1)[C@H](O)C2 [Cinnamtannin B‐1] | 0 | 4
17 | C[N+](C)(C)CCOP(=O)([O-])OP(=O)([O-])OC[C@H]1O[C@@H](n2ccc(N)nc2=O)[C@H](O)[C@@H]1O.[Na+] [Citicoline (sodium)] | 4 | 0
18 | O.O=C(O)CC(O)(CC(=O)O)C(=O)O [Citric acid (monohydrate)] | 63 | 32
19 | N.N.N.O=C(O)CC(O)(CC(=O)O)C(=O)O [Citric acid (triammonium)] | 8 | 0
20 | O.O=C([O-])CC(O)(CC(=O)[O-])C(=O)[O-].[K+].[K+].[K+] [Citric acid (tripotassium hydrate)] | 28 | 4
21 | O=C([O-])CC(O)(CC(=O)[O-])C(=O)[O-].[Na+].[Na+].[Na+] [Citric acid (trisodium)] | 8 | 2
22 | Cl.Clc1ccc(Cn2c(CN3CCCC3)nc3ccccc32)cc1 [Clemizole (hydrochloride)] | 25 | 69

Row | SMILES | Percentage of motility inhibition 0 h [%] | Percentage of motility inhibition 24 h [%]
23 | CCC[C@@H]1C[C@@H](C(=O)N[C@@H]([C@H]2O[C@H](SC)[C@H](O)[C@@H](O)[C@H]2O)[C@H](C)Cl)N(C)C1.Cl [Clindamycin (hydrochloride)] | 28 | 3
24 | Nc1ncnc(N[C@@H]2O[C@H](CO)[C@@H](O)[C@H]2O)c1[N+](=O)[O-] [Clitocine] | 0 | 4
25 | O=C(/C=C\c1ccc(O)c(O)c1)N[C@@H](Cc1ccc(O)c(O)c1)C(=O)O [Clovamide] | 2 | 0
26 | Cc1onc(-c2ccccc2Cl)c1C(=O)N[C@@H]1C(=O)N2[C@@H]1SC(C)(C)[C@@H]2C(=O)[O-].O.[Na+] [Cloxacillin (sodium monohydrate)] | 14 | 4
27 | C[C@@]12C[C@@H](c3ccoc3)OC(=O)[C@@H]1CC[C@]1(C)[C@H]2[C@@H]2C=C[C@@]1(O)C(=O)O2 [Columbin] | 0 | 1
28 | C=C[C@]1(C)C=C2CC[C@H]3[C@@](C)(CCC[C@@]3(C)C(=O)O)[C@@H]2CC1 [Continentalic acid] | 36 | 24
29 | O=S(=O)([O-])O.c1c2c(cc3c1OCO3)-c1cc3ccc4c(c3c[n+]1CC2)OCO4 [Coptisine (Sulfate)] | 0 | 9
30 | [Cl-].c1c2c(cc3c1OCO3)-c1cc3ccc4c(c3c[n+]1CC2)OCO4 [Coptisine (chloride)] | 1 | 6
31 | C=C[C@H]1[C@H](O[C@@H]2O[C@H](CO)[C@@H](O)[C@H](O)[C@H]2O)OC=C(C(=O)OC)[C@H]1CCOC(=O)c1cc(O)c(O)c(O)c1 [Cornuside] | 0 | 24
32 | COc1cc2c(cc1OC)[C@H]1[C@@H](C)c3ccc(OC)c(OC)c3CN1CC2 [Corydaline] | 0 | 8
33 | CC(C)=CCC/C(C)=C/Cc1cc(-c2coc3cc(O)ccc3c2=O)ccc1O [Corylifol A] | 40 | 4
34 | CN1Cc2c(ccc3c2OCO3)[C@@]2(C)[C@@H](O)Cc3cc4c(cc3[C@@H]12)OCO4 [Corynoline] | 13 | 0
35 | COc1cc2c(cc1O)CCN1Cc3c(ccc(OC)c3OC)CC21 (stereo not shown) [Corypalmine] | 17 | 16
36 | CC(/C=C/C=C(\C)C(=O)[O-])=C\C=C\C=C(C)\C=C\C=C(/C)C(=O)[O-].[Na+].[Na+] [Crocetin (disodium)] | 0 | 5
37 | CC(/C=C/C=C(\C)C(=O)O)=C\C=C\C=C(C)\C=C\C=C(/C)C(=O)O.CNC[C@H](O)[C@@H](O)[C@H](O)[C@H](O)CO.CNC[C@H](O)[C@@H](O)[C@H](O)[C@H](O)CO [Crocetin (meglumine)] | 6 | 10
38 | CC(/C=C/C=C(\C)C(=O)O[C@@H]1O[C@H](CO)[C@@H](O)[C@H](O)[C@H]1O)=C\C=C\C=C(C)\C=C\C=C(/C)C(=O)O[C@@H]1O[C@H](CO[C@@H]2O[C@H](CO)[C@@H](O)[C@H](O)[C@H]2O)[C@@H](O)[C@H](O)[C@H]1O [Crocin II] | 27 | 1
39 | Nc1nc(=O)[nH]c2c1ncn2[C@@H]1O[C@H](CO)[C@@H](O)[C@H]1O [Crotonoside] | 0 | 0
40 | CC(=O)OC(C)(C)CCC(=O)[C@](C)(O)[C@H]1[C@H](O)C[C@@]2(C)[C@@H]3CC=C4[C@@H](C[C@H](O)[C@@H](O)C4(C)C)[C@]3(C)C(=O)C[C@]12C [Cucurbitacin IIa] | 0 | 6
41 | CC(C)(O)CCC(=O)[C@](C)(O)C1[C@H](O)C[C@@]2(C)[C@@H]3CC=C4[C@@H](C[C@H](O)[C@@H](O)C4(C)C)[C@]3(C)C(=O)C[C@]12C (stereo partly shown) [Cucurbitacin IIb] | 7 | 43
42 | CC(=O)CC[C@@H]1[C@H]2CC(=C(C)C)C(=O)C[C@@]12C [Curcumenone] | 3 | 0
43 | C=C1C[C@@]2(O)O[C@@]3(C[C@H]2C(C)C)[C@@H](C)CC[C@@H]13 [Curcumol] | 8 | 12
44 | C/C1=C/CC[C@H](C)C(=O)C[C@@H](C(C)C)C(=O)C1 [Curdione] | 7 | 22
